Assay results published in patent US10351539B2, “Macrocyclic complexes, their process of preparation and use as PET imaging agents” (INSTITUT NATIONAL DE LA SANTE ET DE LA RECHERCHE MEDICALE …, priority 2014, dated 2019).
Where two headings read alike, the source gives them in different places.

Tests used:
[1] = Study 3: quantitative biodistribution of ^64Cu-5 in rats; assay type: in vivo
Procedure: (§1) Quantitative biodistribution of radiolabelled compounds was determined in rats: healthy animals as well as rats with primary grade II orthotopic chondrosarcoma at stage Day-30 after induction. The chondrosarcoma model was the Swarm Rat Chondrosarcoma model (SRC) implanted in paratibial location. Radiolabelled compounds (5-10 Mbq/animal) were i.v. administered in the caudal vein of animals being anesthetized of mixture of ketamine (58 mg/kg i.p.) (Imalgéne 500®) and xylazine (6 mg/kg i.p.) (Rompun® 2%, Bayer, France). One hour after injection, animals were then sacrificed by CO2 inhalation, dissected and organs of interest removed, weighed and their radioactivity counted using a gamma counter (Model 1480 Wizard, Perkin Elmer Life Sciences, Boston, USA). For SRC animals, tumor was also sampled. After radioactive decay correction, results were expressed for each organ as % injected dose per gram (% ID/g) and averaged per group.
The comparison was carried out between ^64Cu-5 and ^99mTc-NTPC, the NTPC ligand having the following structure: […]

[2] = Biodistribution in healthy and SRC bearing rats at 1 h after i.v. injection of radiolabelled compounds; assay type: in vivo; conditions: mean ± SD (n = 3)
Procedure: as §1, with “USA). Organs collected were blood, muscle, knee, kidneys, liver, thoracic ribs, bladder for both healthy and chondrosarcoma bearing rats.” for “USA).”, “tumour” for “tumor”

[3] = Study 2: biodistribution in healthy New Zealand rabbits (gamma counting of dissected organs); assay type: in vivo; conditions: i.v.
Procedure: Biodistribution were determined in 36 healthy New Zealand rabbits (18 males and 18 females, 14 weeks old, 3.5 kg weight, Charles River, France), being randomly divided into two groups: • One group receiving ^99mTc-NTP 15-5: 18±3 MBq/animal for biodistribution; • One group receiving ^64Cu-2: 17±4 MBq/animal for biodistribution.
The compounds were i.v. administered to anesthetized animals (ketamine/xylazine by intramuscular route) in the marginal ear vein.
At selected time points after injection (15 min, 1 h, 3 h, 6 h, 20 h after injection), animals (3 animals/time point/compound) were sacrificed by a lethal i.v. dose of pentobarbital. Organs of interest were dissected, weighed and their radioactivity measured using a gamma counter (Model 1480 Wizard, Perkin Elmer Life Sciences, Boston, USA). After radioactive decay correction, results were expressed for each organ as % injected dose per gram (% ID/g) and averaged per group and per time point.

[4] = Study 1: biodistribution of ^99mTc-NTP 15-5 in healthy rat; assay type: in vivo; conditions: 1 h p.i., 0.37 MBq, average from 3 animals ± SD
Procedure: as §1, with “Radiolabelled compounds (5-10 Mbq/animal) were i.v. administered in the caudal vein of animals being anesthetized of mixture of ketamine (58 mg/kg i.p.) (Imalgéne 500®) and xylazine (6 mg/kg i.p.) (Rompun® 2%, Bayer, France).” left out, “USA). Organs collected were blood, muscle, knee, kidneys, liver, thoracic ribs, bladder for both healthy and chondrosarcoma bearing rats.” for “USA).”, “tumour” for “tumor”
The following table discloses the biodistribution of ^99mTc-NTP 15-5 in healthy rat, carried out in similar conditions than those of the compounds of the invention (see section C above).

[5] = Maurizis et al. 2000, 7.4 MBq/Kg; cited from earlier work
[6] = i.v., 5-10 MBq/animal, one hour after injection

In the case of `CC[N+](CC)(CC)CCCN1CCCNCCNCCCNCC1.[64Cu+2]` [^64Cu-5, [^64Cu]—N,N,N-Triethyl-3-(1,4,8,11-tetraazacyclotetradecan-1-yl)propan-1-aminium copper(II)], the “Uptake in kidneys compared to ^99mTc-NTPC” value [1] is reported as “higher uptake”, the Uptake in liver [1] is reported as “undetectable” and the “Uptake in target organs (intervertebral disc and articular cartilage) compared to ^99mTc-NTPC” value [1] is reported as “higher uptake”. The Articular Cartilage [1, 6] was 5.9 ± 2.3 % ID/g, the Blood [1, 6] was 0.8 ± 1.2 % ID/g and the Intervertebral disc [1, 6] was 3.5 ± 0.6 % ID/g. The Kidney [1, 6] was 27.5 ± 10.1 % ID/g, the “Elimination compared to ^99mTc-NTPC” value ([1]; indicated by accumulation in kidneys) was “good elimination” and the “In vivo stability (Cu is not released)” value ([1]; inferred from liver uptake) was “stable”. For the same molecule, the Tumor ([2]; SRC (Swarm Rat Chondrosarcoma) bearing rats) was 5.2 ± 2.1 % ID/g, the Articular Cartilage ([2]; healthy and SRC bearing rats) was 5.9 ± 2.3 % ID/g and the Bladder ([2]; healthy and SRC bearing rats) was 66.5 ± 14.4 % ID/g. It also gave a Blood ([2]; healthy and SRC bearing rats) of 0.8 ± 1.2 % ID/g, a Kidney ([2]; healthy and SRC bearing rats) of 27.5 ± 10.1 % ID/g and a Muscle ([2]; healthy and SRC bearing rats) of 1.5 ± 1.2 % ID/g.

With `CC[N+](CC)(CC)CCCN1CC[N]2CC[N]3CC[N]4CC[N](CC1)[Tc]234(=[O])=[O].[Br-]` [^99mTc-NTP 15-5, reference compound] the “Uptake ratio Cartilage/Bone” value ([3]; 15 min) was 51.5, the “Uptake ratio Cartilage/Muscle” value ([3]; 15 min) was 103 and the “Articular Cartilage” value ([3]; 15 min after injection) was 1.03 ± 0.4 % ID/g. The Bile ([3]; 15 min after injection) was 0.09 ± 0.08 % ID/g, the Blood ([3]; 15 min after injection) was 1.09 ± 0.81 % ID/g and the Bone ([3]; 15 min after injection) was 0.02 ± 0.01 % ID/g. For the same molecule, the “Bone Marrow” value ([3]; 15 min after injection) was 0.02 ± 0.02 % ID/g, the Kidney ([3]; 15 min after injection) was 0.19 ± 0.03 % ID/g and the Liver ([3]; 15 min after injection) was 0.05 ± 0.02 % ID/g. For the same molecule, the Lung ([3]; 15 min after injection) was 0.04 ± 0.04 % ID/g, the Muscle ([3]; 15 min after injection) was 0.01 ± 0.00 % ID/g and the Spleen ([3]; 15 min after injection) was 0.03 ± 0.06 % ID/g. For the same molecule, the Thyroid ([3]; 15 min after injection) was 0.05 ± 0.04 % ID/g, the Urine ([3]; 15 min after injection) was 1.40 ± 1.02 % ID/g and the “Uptake ratio Cartilage/Bone” value ([3]; 1 h) was 46. The “Articular Cartilage” value ([3]; 1 h after injection) was 0.92 ± 0.4 % ID/g, the Bile ([3]; 1 h after injection) was 0.09 ± 0.07 % ID/g and the Blood ([3]; 1 h after injection) was 0.75 ± 0.09 % ID/g. For the same molecule, the Bone ([3]; 1 h after injection) was 0.02 ± 0.00 % ID/g, the “Bone Marrow” value ([3]; 1 h after injection) was 0.01 ± 0.00 % ID/g and the Kidney ([3]; 1 h after injection) was 0.10 ± 0.06 % ID/g. The Liver ([3]; 1 h after injection) was 0.06 ± 0.03 % ID/g, the Lung ([3]; 1 h after injection) was 0.02 ± 0.00 % ID/g and the Muscle ([3]; 1 h after injection) was 0.00 ± 0.00 % ID/g. For the same molecule, the Spleen ([3]; 1 h after injection) was 0.02 ± 0.01 % ID/g, the Thyroid ([3]; 1 h after injection) was 0.06 ± 0.03 % ID/g and the Urine ([3]; 1 h after injection) was 4.08 ± 5.75 % ID/g. The “Articular Cartilage” value ([3]; 3 h after injection) was 0.35 ± 0.15 % ID/g, the Bile ([3]; 3 h after injection) was 0.18 ± 0.24 % ID/g and the Blood ([3]; 3 h after injection) was 0.17 ± 0.81 % ID/g. The Bone ([3]; 3 h after injection) was 0.00 ± 0.00 % ID/g, the “Bone Marrow” value ([3]; 3 h after injection) was 0.00 ± 0.00 % ID/g and the Kidney ([3]; 3 h after injection) was 0.09 ± 0.03 % ID/g. It also gave a Liver ([3]; 3 h after injection) of 0.08 ± 0.02 % ID/g, a Lung ([3]; 3 h after injection) of 0.01 ± 0.00 % ID/g and a Muscle ([3]; 3 h after injection) of 0.00 ± 0.00 % ID/g. For the same molecule, the Spleen ([3]; 3 h after injection) was 0.00 ± 0.00 % ID/g, the Thyroid ([3]; 3 h after injection) was 0.11 ± 0.01 % ID/g and the Urine ([3]; 3 h after injection) was 1.34 ± 0.52 % ID/g. For the same molecule, the “Articular Cartilage” value ([3]; 6 h after injection) was 0.09 ± 0.03 % ID/g, the Bile ([3]; 6 h after injection) was 0.08 ± 0.02 % ID/g and the Blood ([3]; 6 h after injection) was 0.03 ± 0.00 % ID/g. The Bone ([3]; 6 h after injection) was 0.00 ± 0.00 % ID/g, the “Bone Marrow” value ([3]; 6 h after injection) was 0.00 ± 0.00 % ID/g and the Kidney ([3]; 6 h after injection) was 0.06 ± 0.01 % ID/g. For the same molecule, the Liver ([3]; 6 h after injection) was 0.06 ± 0.01 % ID/g, the Lung ([3]; 6 h after injection) was 0.00 ± 0.00 % ID/g and the Muscle ([3]; 6 h after injection) was 0.00 ± 0.00 % ID/g. The Spleen ([3]; 6 h after injection) was 0.00 ± 0.00 % ID/g, the Thyroid ([3]; 6 h after injection) was 0.02 ± 0.03 % ID/g and the Urine ([3]; 6 h after injection) was 1.61 ± 0.6 % ID/g. For the same molecule, the “Articular Cartilage” value ([3]; 20 h after injection) was 0.04 ± 0.01 % ID/g, the Bile ([3]; 20 h after injection) was 0.03 ± 0.01 % ID/g and the Blood ([3]; 20 h after injection) was 0.00 ± 0.00 % ID/g. The Bone ([3]; 20 h after injection) was 0.00 ± 0.00 % ID/g, the “Bone Marrow” value ([3]; 20 h after injection) was 0.00 ± 0.00 % ID/g and the Kidney ([3]; 20 h after injection) was 0.07 ± 0.00 % ID/g. For the same molecule, the Liver ([3]; 20 h after injection) was 0.03 ± 0.02 % ID/g, the Lung ([3]; 20 h after injection) was 0.00 ± 0.00 % ID/g and the Muscle ([3]; 20 h after injection) was 0.00 ± 0.00 % ID/g. For the same molecule, the Spleen ([3]; 20 h after injection) was 0.01 ± 0.00 % ID/g, the Thyroid ([3]; 20 h after injection) was 0.00 ± 0.00 % ID/g and the Urine ([3]; 20 h after injection) was 0.40 ± 0.01 % ID/g. For the same molecule, the Blood [4] was 0.90 ± 0.08 % ID/g, the “Bone (tibia)” value [4] was 0.51 ± 0.29 % ID/g and the Brain [4] was 0.14 ± 0.02 % ID/g. The Kidney [4] was 15.4 ± 12.5 % ID/g, the Liver [4] was 2.02 ± 0.38 % ID/g and the Lung [4] was 1.71 ± 0.97 % ID/g. It also gave a Muscle [4] of 0.37 ± 0.24 % ID/g, a Spleen [4] of 0.71 ± 0.25 % ID/g and a Testis [4] of 1.11 ± 0.47 % ID/g. For the same molecule, the Tibial plateau [4] was 2.99 ± 1.60 % ID/g.

In the case of `CC[N+](CC)(CC)CCCN1CCCNCCNCCCNCC1` [^99mTc-NTPC, metal not drawn], the Articular Cartilage [5] is given as 0.52 ± 0.08 % ID/g, the Blood [5] is given as 0.22 ± 0.05 % ID/g and the Intervertebral disc [5] is given as 0.36 ± 0.09 % ID/g. For the same molecule, the Kidney [5] was 2.96 ± 0.36 % ID/g and the Liver [5] was 4.34 ± 0.47 % ID/g.
